Laboratory results as given in patent US7884067B2, “Peptides derived from cadherin and methods of use thereof” (Mount Sinai School of Medicine of New York University, priority 2001, dated 2011).

B1: N-Cad/CTF2: chicken cytoplasmic domain of N-cadherin (N-Cad/CTF2) inserted into vector pECE, expressed in L cells (protein)
chain: KRRDKERQAKQLLIDPEDDVRDNILKYDEEGGGEEDQDYDLSQLQQPDTVEPDAIKPVGIRRLDERPIHAEPQYPVRSAAPHPGDIGDFINEGLKAADNDPTAPPYDSLLVFDYEGSGSTAGSLSSLNSSSSGGEQDYDYLNDWGPRFKKLADMYGGGDD

What was measured:
N-cadherin = experiment: In vitro ε-cleavage assay, membranes from mouse brain neuronal cultures; assay type: biochemical; details: PS1+/− neurons, L-685,458 (0.5 μM)
Experimental: Primary, neuronal cultures. Mixed hippocampal and cortical neuronal cultures were prepared from E18 mouse or rat brains as described by Banker and Goslin (1991) Culturing Nerves Cells, London, MIT Press. Neurons were maintained 10 days in vitro in glial conditioned MEM containing 2% glucose and N2 supplements as described by Bottenstein and Sato (1979) Proc. Natl. Acad. Sci. USA 76: 514-517, and then were stimulated for 15 minutes with Mg2+-free Hanks' balanced salt solution (HBSS, Sigma) containing KCl (50 mM), L-Glutamate ([…]) or NMDA ([…]). D-APV ([…]) was applied 15 minutes before stimulation.
In vitro γ-secretase-like ε-cleavage assay. Cells were washed in PBS, resuspended in 1 ml of 4° C. hypotonic buffer (10 mM MOPS, pH 7.0, 10 mM KCl) and homogenized on ice. A post-nuclear supernatant was prepared by centrifugation at 1000×g for 15 minutes at 4° C. Crude membranes were isolated from the post-nuclear supernatant by centrifugation at 16,000×g for 40 minutes at 4° C. The membranes were then resuspended in […] of assay buffer (150 mM sodium citrate, pH 6.4, 1× Complete protease inhibitor cocktail), and incubated at 37° C. for 2 hours. Samples were either analyzed directly by WB or separated into pellet (P100) and supernatant (S100) fractions by ultracentrifugation for 1 hour at 100,000×g at 4° C. The S100 and P100 fractions were then analyzed by WB.

c-fos = c-fos mRNA (RT-PCR) and protein (Western blot) in N2a cells; assay type: cell-based, mouse
Experimental: Reverse Transcriptase (RT)-PCR Analysis. Total RNA was extracted from cells using a RNeasy Mini Kit (Qiagen) according to instructions by the manufacturer. Analysis of gene expression was performed using semiquantitative RT-PCR. The following primers were used: 5′-[…]-3′ (SEQ ID NO: 13) and 5′-[…]-3′ (SEQ ID NO: 14) for c-fos; 5′-[…]-3′ (SEQ ID NO: 15) and 5′-[…]-3′ (SEQ ID NO: 16) for gapdh.
N2a cells co-transfected with plasmids pCRE-luc, pFC-PKA, and pSV-β-galactosidase were incubated for 16 hours with DMSO or with L-685,458 ([…]) and CRE-dependent transactivation was measured as described above. Data in FIG. 10A are the mean+/−s.e. of 3 experiments normalized to β-galactosidase activity and protein concentration. *, P<0.05 (Student's t test). Total RNA isolated from N2a cells treated either with DMSO or with L-685,458, was analyzed by semiquantitative RT-PCR using specific primers for c-fos and gapdh. The graph in FIG. 10B represents the relative abundance of c-fos-specific PCR products following quantitation of the mRNA signals shown in the upper panel. Extract from N2a cells treated either with DMSO or with L-685,458, were probed on WBs with anti-c-fos or anti-β-tubulin antibodies. Extract from PS1+/+ or PS1−/− mouse fibroblasts were probed on WBs with either anti-c-fos or anti-β-tubulin antibodies. Extract from PS1+/− or PS1−/− mouse embryonic brains were probed on WBs with anti-c-fos (FIG. 10E, upper panel), anti-b-tubulin (FIG. 10E, middle panel), or anti-PS1/CTF (FIG. 10E, lower panel) antibodies.

MEF-1 = experiment: Electrophoretic mobility shift assay, MEF-1 probe; assay type: biochemical; details: FIG. 11C lanes 12-14
Experimental: Electrophoresis mobility shift assay (EMSA). Nuclear extract from CBP-transfected L cells were prepared using the extraction kit N-XTRACT (Sigma) according to manufacturer's instructions. Ten microgram of nuclear extract was used for EMSA performed according to manufacturer's instructions using biotinylated double-stranded oligonucleotide probes containing DNA-binding motifs for CREB or MEF-1 (Panomics). Probes are as follow: CREB, 5′-[…]-3′ (SEQ ID NO: 17); MEF-1,5′-[…]-3′ (SEQ ID NO: 18). Reaction products were separated on 6% polyacrylamide gels in cold TBE buffer (50 mM Tris-HCl, 45 mM Boric acid, 0.5 mM EDTA), transferred to nylon membranes (Immobilon-Ny+, Millipore) and bound probes were immobilized for 30 minutes at 85° C. and visualized by chemiluminescence using streptavidin-HRP conjugate. For antibody supershift analysis, nuclear extract was incubated for 3 hours at 4° C. with […] of 1 B6 antibody prior to probe addition. Where indicated, nuclear extract ([…]) was immunoprecipitated with A-22 antibody ([…]) and protein A-agarose in EBC buffer (50 mM Tris, pH 8, 120 mM NaCl, 0.5% NP40, 1× Complete protease inhibitor cocktail).

Molecule	N-Cad/CTF2 peptide (N-cadherin)	gapdh mRNA and β-tubulin (c-fos; L-685,458, FIGS. 10B and 10C)	c-fos mRNA (c-fos; L-685,458 vs untreated controls, FIG. 10B)	c-fos protein (c-fos; L-685,458 vs untreated controls, FIG. 10C)	complex formation between MEF-1 and DNA probe containing MEF-1-binding elements (MEF-1)
CC(C)C[C@H](NC(=O)[C@H](Cc1ccccc1)C[C@@H](O)[C@H](Cc1ccccc1)NC(=O)OC(C)(C)C)C(=O)N[C@@H](Cc1ccccc1)C(N)=O [L-685,458]	inhibited	remained unchanged	stimulated	stimulated	
B1					no effect
